Measured values: the RepoRT retention time repository (doi:10.1021/acs.analchem.7b00925)

Test: HILIC, Merck SeQuant ZIC-HILIC, 100 × 2.1 mm, 3.5 µm, 25 °C, 0.3 mL/min, estimated dead time 0.73 min; A: water + 0.1% formic acid, pH 3; B: acetonitrile + 0.1% formic acid, pH 3; gradient (min/%B) 0/95 1.5/95 13.5/40 15.5/40 29.7/25 33.5/25 34.5/95 41.5/95
Conditions: stereoisomer not certain

SMILES	LC retention time [min]
O=C(C=Cc1ccc(O)c(O)c1)OC1CC(O)(C(=O)O)CC(O)C1O (stereo not given) [Chlorogenic acid]	4.42
NC(CCO)C(=O)O (stereo not given) [Homoserine]	8.29
NC(=O)NCCCC(N)C(=O)O (stereo not given) [Citrulline]	8.89
NC1C(O)OC(CO)C(O)C1O (stereo not given) [Glucosamine]	10.5
Cn1c(=O)c2c([nH]c(=O)n2C)n(C)c1=O [1,3,7-trimethyluric acid]	1.87
Cc1cn(C2CC(O)C(CO)O2)c(=O)[nH]c1=O (stereo not given) [Thymidine]	2.58
OCCc1ccc(O)c(O)c1 [3,4-dihydroxyphenylethanol]	2.27
CC(C)CC(NC(=O)C(C)NC(=O)C(N)Cc1ccccc1)C(=O)O (stereo not drawn) [Phe-Ala-Leu]	5.8
O=C(O)C1CC(O)CN1C(=O)C1CCCN1 (stereo not given) [Proline-hydroxyproline]	8.4
O=c1[nH]c(=O)c2ncn(C3OC(CO)C(O)C3O)c2[nH]1 (stereo not given) [Xanthosine]	5.36
CN(CC(=O)O)C(N)=NP(=O)(O)O [Phosphocreatine]	7.7
CC(NC(=O)C(N)Cc1ccccc1)C(=O)NC(CO)C(=O)O (stereo not drawn) [Phe-Ala-Ser]	7.49
CC(CCC(=O)O)C1CCC2C3C(O)CC4CC(O)CCC4(C)C3CC(O)C12C (stereo not given) [cholic acid]	1.96
Cc1ncc(CO)c(C=O)c1O [Pyridoxal]	4.94
CC1(C)SC2C(NC(=O)C(N)c3ccc(O)cc3)C(=O)N2C1C(=O)O (stereo not given) [Amoxicillin]	6.82
Cc1ccccc1C(=O)NCC(=O)O [Methylhippurate]	1.05
NCCS(=O)(=O)O [Taurine]	7.44
Nc1ncnc2c1ncn2C1OC(CSCCC([NH3+])C(=O)[O-])C(O)C1O (stereo not given) [S-adenosylhomocysteine]	10.1

SMILES	LC retention time [min]
CC(C)(C)NCC(O)c1ccc(O)c(CO)c1 (stereo not given) [Salbutamol]	6.57
O=C(O)c1ccncc1 [Isonicotinic acid]	2.25
CC(=O)NCCCCN [N-acetylputrescine]	8.56
CCC(NC(=O)CCC(N)C(=O)O)C(=O)NCC(=O)O (stereo not given) [Ophthalmic acid]	7.85
NC(=O)CC(N)C(=O)O (stereo not given) [Asparagine]	8.67
OCC(O)C(O)C(O)C(O)CO (stereo not given) [Mannitol]	6.57
CNCC(O)c1ccc(O)c(OC)c1 (stereo not given) [Metanephrine]	7.06
O=C(C=CC=Cc1ccc2c(c1)OCO2)N1CCCCC1 [Piperine]	0.94
O=c1ccn(C2OC(CO)C(O)C2O)c(=O)[nH]1 (stereo not given) [Uridine]	4.98
O=c1[nH]cccc1O [2,3-Dihydroxypyridine]	4.47
NC(Cc1c[nH]c2ccc(O)cc12)C(=O)O (stereo not given) [5-hydroxytryptophan]	7.58
Nc1cccc(C(=O)O)c1 [m-Aminobenzoic acid]	2.09
NCCc1ccc(O)cc1 [Tyramine]	6.81
CCCCC(N)C(=O)O (racemic) [DL-Norleucine]	6.41
CC(C)CC(NC(=O)C(C)N)C(=O)O (stereo not given) [Alanyl-leucine]	6.54
OCCOCCOCCOCCOCCOCCO [Hexaethylene glycol]	1.69
O=C(O)CNC(=O)c1ccccc1 [Hippuric acid]	1.36
